Reference: PubChem BioAssay AID256 (DTP/NCI, 2004)
Values joined by “and” are separate entries in the source; they are usually repeats but may differ in a detail not shown here. Identical values can stand only once. Toxic doses and inconclusive results are not listed.

Test system: CD2F1 mice, L1210 leukemia ip, survival T/C
Assay: NCI In Vivo Anticancer Drug Screen. Data for tumor model L1210 Leukemia (intraperitoneal) in CD2F1 (CDF1) mice
Settings: higher = longer survival
Procedure, shortened: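 Transplantable tumor in mice; compound-treated vs vehicle-treated groups. Read-out = treated/control ratio of the measured endpoint.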

[1] = endpoint: mean survival time, dose: 50.0 mg/kg/injection, schedule: Q01DX009 (ip), vehicle: saline with Tween-80
[2] = endpoint: mean survival time, dose: 100.0 mg/kg/injection, schedule: Q01DX009 (ip), vehicle: saline with Tween-80
[3] = endpoint: mean survival time, dose: 200.0 mg/kg/injection, schedule: Q01DX009 (ip), vehicle: saline with Tween-80
[4] = endpoint: mean survival time, dose: 400.0 mg/kg/injection, schedule: Q01DX009 (ip), vehicle: saline with Tween-80

With `C1CN1c1nc(N2CC2)nc(N2CC2)n1` the T/C (endpoint: mean survival time, dose: 0.05 mg/kg/injection, schedule: Q01DX009 (ip), vehicle: saline) was 100 % of control, the T/C (endpoint: mean survival time, dose: 0.06 mg/kg/injection, schedule: Q01DX009 (ip), vehicle: saline) was 150 % of control and the T/C (endpoint: mean survival time, dose: 0.06 mg/kg/injection, schedule: Q03HX008 (ip), vehicle: saline) was 100 % of control. The T/C (endpoint: mean survival time, dose: 0.06 mg/kg/injection, schedule: Q03HX016 (ip), vehicle: saline) was 95 % of control and 97 % of control, the T/C (endpoint: mean survival time, dose: 0.06 mg/kg/injection, schedule: Q03HX024 (ip), vehicle: saline) was 113 % of control and the T/C (endpoint: mean survival time, dose: 0.1 mg/kg/injection, schedule: Q01DX009 (ip), vehicle: saline) was 107 % of control. For the same molecule, the T/C (endpoint: mean survival time, dose: 0.12 mg/kg/injection, schedule: Q01DX009 (ip), vehicle: saline) was 215 % of control and 100 % of control, the T/C (endpoint: mean survival time, dose: 0.13 mg/kg/injection, schedule: Q03HX008 (ip), vehicle: saline) was 110 % of control and the T/C (endpoint: mean survival time, dose: 0.13 mg/kg/injection, schedule: Q03HX016 (ip), vehicle: saline) was 104 % of control and 110 % of control. For the same molecule, the T/C (endpoint: mean survival time, dose: 0.13 mg/kg/injection, schedule: Q03HX024 (ip), vehicle: saline) was 124 % of control, the T/C (endpoint: mean survival time, dose: 0.2 mg/kg/injection, schedule: Q01DX009 (ip), vehicle: saline) was 117 % of control and the T/C (endpoint: mean survival time, dose: 0.25 mg/kg/injection, schedule: Q01DX005 (ip), vehicle: saline) was 117 % of control. For the same molecule, the T/C (endpoint: mean survival time, dose: 0.25 mg/kg/injection, schedule: Q01DX009 (ip), vehicle: saline) was 109 % of control, the T/C (endpoint: mean survival time, dose: 0.25 mg/kg/injection, schedule: Q03HX024 (ip), vehicle: saline) was 174 % of control and the T/C (endpoint: mean survival time, dose: 0.4 mg/kg/injection, schedule: Q01DX009 (ip), vehicle: saline) was 155 % of control. For the same molecule, the T/C (endpoint: mean survival time, dose: 0.5 mg/kg/injection, schedule: Q01DX001 (ip), vehicle: saline) was 114 % of control, the T/C (endpoint: mean survival time, dose: 0.5 mg/kg/injection, schedule: Q01DX005 (ip), vehicle: saline) was 150 % of control and the T/C (endpoint: mean survival time, dose: 0.5 mg/kg/injection, schedule: Q01DX007 (ip), vehicle: saline) was 183 % of control. For the same molecule, the T/C (endpoint: mean survival time, dose: 0.5 mg/kg/injection, schedule: Q03HX008 (ip), vehicle: saline) was 185 % of control, the T/C (endpoint: mean survival time, dose: 0.5 mg/kg/injection, schedule: Q03HX016 (ip), vehicle: saline) was 183 % of control and the T/C (endpoint: mean survival time, dose: 0.5 mg/kg/injection, schedule: Q03HX024 (ip), vehicle: saline) was 101 % of control. For the same molecule, the T/C (endpoint: mean survival time, dose: 0.5 mg/kg/injection, schedule: Q08DX002 (ip), vehicle: saline) was 107 % of control, the T/C (endpoint: mean survival time, dose: 0.5 mg/kg/injection, schedule: Q11DX002 (ip), vehicle: saline) was 100 % of control and the T/C (endpoint: mean survival time, dose: 1.0 mg/kg/injection, schedule: Q01DX001 (ip), vehicle: saline) was 190 % of control. The T/C (endpoint: mean survival time, dose: 1.0 mg/kg/injection, schedule: Q01DX005 (ip), vehicle: saline) was 86 % of control, the T/C (endpoint: mean survival time, dose: 1.0 mg/kg/injection, schedule: Q01DX007 (ip), vehicle: saline) was 92 % of control and the T/C (endpoint: mean survival time, dose: 1.0 mg/kg/injection, schedule: Q03DX003 (ip), vehicle: saline) was 183 % of control. The T/C (endpoint: mean survival time, dose: 1.0 mg/kg/injection, schedule: Q08DX002 (ip), vehicle: saline) was 204 % of control, the T/C (endpoint: mean survival time, dose: 1.0 mg/kg/injection, schedule: Q11DX002 (ip), vehicle: saline) was 97 % of control and the T/C (endpoint: mean survival time, dose: 2.0 mg/kg/injection, schedule: Q01DX001 (ip), vehicle: saline) was 154 % of control and 157 % of control. For the same molecule, the T/C (endpoint: mean survival time, dose: 2.0 mg/kg/injection, schedule: Q03DX003 (ip), vehicle: saline) was 211 % of control, the T/C (endpoint: mean survival time, dose: 2.0 mg/kg/injection, schedule: Q08DX002 (ip), vehicle: saline) was 184 % of control and the T/C (endpoint: mean survival time, dose: 2.0 mg/kg/injection, schedule: Q11DX002 (ip), vehicle: saline) was 100 % of control. The T/C (endpoint: mean survival time, dose: 3.0 mg/kg/injection, schedule: Q01DX001 (ip), vehicle: saline) was 169 % of control and 338 % of control, the T/C (endpoint: mean survival time, dose: 4.0 mg/kg/injection, schedule: Q01DX001 (ip), vehicle: saline) was 120 % of control and the T/C (endpoint: mean survival time, dose: 4.0 mg/kg/injection, schedule: Q08DX002 (ip), vehicle: saline) was 102 % of control. For the same molecule, the T/C (endpoint: mean survival time, dose: 4.0 mg/kg/injection, schedule: Q11DX002 (ip), vehicle: saline) was 153 % of control, the T/C (endpoint: mean survival time, dose: 62.0 micrograms/kg/injection, schedule: Q01DX009 (ip), vehicle: saline) was 123 % of control and the T/C (endpoint: mean survival time, dose: 125.0 micrograms/kg/injection, schedule: Q01DX009 (ip), vehicle: saline) was 173 % of control. The T/C (endpoint: median survival time, dose: 0.25 mg/kg/injection, schedule: Q01DX009 (ip), vehicle: saline) was 100 % of control, the T/C (endpoint: median survival time, dose: 0.5 mg/kg/injection, schedule: Q01DX009 (ip), vehicle: saline) was 150 % of control and 185 % of control and the T/C (endpoint: median survival time, dose: 1.0 mg/kg/injection, schedule: Q01DX009 (ip), vehicle: saline) was 121 % of control and 100 % of control.

In the case of `S=C(Cc1ccccc1)N1CCOCC1`, the T/C (endpoint: mean survival time, dose: 100.0 mg/kg/injection, schedule: Q01DX001 (ip), vehicle: saline with Tween-80) is reported as 98 % of control, the T/C (endpoint: mean survival time, dose: 200.0 mg/kg/injection, schedule: Q01DX001 (ip), vehicle: saline with Tween-80) is reported as 102 % of control and the T/C (endpoint: mean survival time, dose: 300.0 mg/kg/injection, schedule: Q01DX001 (ip), vehicle: saline with Tween-80) is reported as 101 % of control.

`O=NN(CCCl)C(=S)Nc1ccccc1` was tested, and the T/C (endpoint: mean survival time, dose: 100.0 mg/kg/injection, schedule: Q01DX001 (ip), vehicle: other) was 98 % of control and the T/C (endpoint: mean survival time, dose: 200.0 mg/kg/injection, schedule: Q01DX001 (ip), vehicle: other) was 98 % of control.

With `CCCCCCCCC/C=C(/CC(=O)O)C(=O)O` the T/C (endpoint: mean survival time, dose: 25.0 mg/kg/injection, schedule: Q01DX009 (ip), vehicle: saline with Tween-80) was 92 % of control, the T/C [1] was 96 % of control and the T/C [2] was 102 % of control.

For `N#Cc1cn(C2OC(CO)C3OC32)c2ncnc(NC(=O)c3ccccc3)c12` (stereo unspecified), the T/C (endpoint: mean survival time, dose: 25.0 mg/kg/injection, schedule: Q01DX005 (ip), vehicle: distilled water + Tween-80) was 103 % of control, the T/C (endpoint: mean survival time, dose: 50.0 mg/kg/injection, schedule: Q01DX005 (ip), vehicle: distilled water + Tween-80) was 104 % of control and the T/C (endpoint: mean survival time, dose: 100.0 mg/kg/injection, schedule: Q01DX005 (ip), vehicle: distilled water + Tween-80) was 114 % of control. The T/C (endpoint: mean survival time, dose: 200.0 mg/kg/injection, schedule: Q01DX005 (ip), vehicle: distilled water + Tween-80) was 110 % of control.

With `Cc1ccc([N+](=O)[O-])cc1NC(=O)Oc1ccc(Cl)cc1Cl` the T/C [1] was 102 % of control and the T/C [2] was 103 % of control.

With `CS(=O)(=O)OC1C(OC(=O)OCc2ccccc2)C2COC(O2)C1OC(=O)OCc1ccccc1` (stereo unspecified) the T/C [2] was 92 % of control, the T/C [3] was 92 % of control and the T/C [4] was 89 % of control.

For `O=C(O)CC(=O)O.[NH-]CC(O)CN=Cc1ccccc1O.[Pt]` (stereo unspecified), the T/C (endpoint: median survival time, dose: 5.0 mg/kg/injection, schedule: Q04DX003 (ip), vehicle: water) was 108 % of control, the T/C (endpoint: median survival time, dose: 10.0 mg/kg/injection, schedule: Q04DX003 (ip), vehicle: water) was 105 % of control and the T/C (endpoint: median survival time, dose: 20.0 mg/kg/injection, schedule: Q04DX003 (ip), vehicle: water) was 108 % of control. For the same molecule, the T/C (endpoint: median survival time, dose: 25.0 mg/kg/injection, schedule: Q04DX003 (ip), vehicle: water) was 110 % of control, the T/C (endpoint: median survival time, dose: 40.0 mg/kg/injection, schedule: Q04DX003 (ip), vehicle: water) was 108 % of control and the T/C (endpoint: median survival time, dose: 50.0 mg/kg/injection, schedule: Q04DX003 (ip), vehicle: water) was 110 % of control. The T/C (endpoint: median survival time, dose: 100.0 mg/kg/injection, schedule: Q04DX003 (ip), vehicle: water) was 105 % of control and the T/C (endpoint: median survival time, dose: 200.0 mg/kg/injection, schedule: Q04DX003 (ip), vehicle: water) was 103 % of control.

For `Oc1cc(O)c2c(c1)O[C@H](c1ccc(O)c(O)c1)[C@@H](O)C2`, the T/C (endpoint: mean survival time, dose: 100.0 mg/kg/injection, schedule: Q01DX001 (ip), vehicle: saline) was 101 % of control, the T/C (endpoint: mean survival time, dose: 200.0 mg/kg/injection, schedule: Q01DX001 (ip), vehicle: saline) was 101 % of control and the T/C (endpoint: mean survival time, dose: 400.0 mg/kg/injection, schedule: Q01DX001 (ip), vehicle: saline) was 98 % of control.

`O=C1C=C(NS(=O)(=O)c2ccccc2)C(=O)c2ccccc21` was tested, and the T/C [2] was 101 % of control, the T/C (endpoint: mean survival time, dose: 100.0 mg/kg/injection, schedule: Q04DX003 (ip), vehicle: saline with Tween-80) was 101 % of control and the T/C [3] was 97 % of control. The T/C (endpoint: mean survival time, dose: 200.0 mg/kg/injection, schedule: Q04DX003 (ip), vehicle: saline with Tween-80) was 95 % of control, the T/C [4] was 97 % of control and the T/C (endpoint: mean survival time, dose: 400.0 mg/kg/injection, schedule: Q04DX003 (ip), vehicle: saline with Tween-80) was 89 % of control.

For `CS(=O)(=O)Nc1ccc(C(=O)CCN2CCCCCC2)cc1`, the T/C (endpoint: median survival time, dose: 25.0 mg/kg/injection, schedule: Q01DX009 (ip), vehicle: saline) was 98 % of control, the T/C (endpoint: median survival time, dose: 50.0 mg/kg/injection, schedule: Q01DX009 (ip), vehicle: saline) was 101 % of control and the T/C (endpoint: median survival time, dose: 100.0 mg/kg/injection, schedule: Q01DX009 (ip), vehicle: saline) was 98 % of control.

`O=C1NNC(=O)C2C3CCC(C3)C12` (stereo unspecified) was tested, and the T/C (endpoint: mean survival time, dose: 100.0 mg/kg/injection, schedule: Q04DX003 (ip), vehicle: saline sonified) was 95 % of control and the T/C (endpoint: mean survival time, dose: 200.0 mg/kg/injection, schedule: Q04DX003 (ip), vehicle: saline sonified) was 89 % of control.
